Measured values from publication PMC9977398, “Next-generation membrane-active glycopeptide antibiotics that also inhibit bacterial cell division” (Chemical Science, 2023).

Legend:
MRSA ATCC33591 = test: Neutropenic murine thigh infection model; assay type: in vivo, Balb/c mice; details: for bacterial load in thigh: 12 mg kg^−1 i.p. at 1 h and 13 h post-infection, 24 h, untreated 8 log CFU g^−1
Method: The in vitro activity, low toxicity, and stability in plasma and liver homogenate, supported the potential of VanQAmC10 as a candidate for the treatment of bacterial infections. The efficacy of VanQAmC10 (8) against MRSA was tested in a neutropenic mouse thigh infection model. Infection was established by injecting them with 5 × 10^5 CFU of MRSA in the thigh. 1 h and 13 h post-infection, mice were treated with 12 mg kg^−1 of vancomycin and VanQAmC10 administered intraperitoneally (Fig. 6B). The mice were sacrificed 24 h post-infection. […] In the untreated group, the bacterial load increased to 8 log CFU g^−1. […] However, treatment with VanQAmC10 reduced the bacterial load to 3.3 log CFU g^−1, which is a 1.5 log CFU g^−1 lower bacterial load than observed against vancomycin. […]
bacterial concentration was adjusted to ~ […] based on OD600. The process was repeated for 27 passages. The fold of MIC increased for test compounds were plotted against […]
Activity in blood plasma and liver homogenate
To examine the susceptibility of VanQAmC10 to serum proteases, the antibacterial activities was tested in the presence of 50% of plasma and liver homogenate. Briefly, 250 μL of VanQAmC10 was added into 250 μL of fresh human plasma and incubated at 37 °C. An aliquot of the samples 3 h and 24h post-incubation was diluted in 0.9% saline and the antibacterial activity (MIC) were determined against MRSA and VRE by following the same protocol as described above for the antibacterial assay.
The toxicity of the lead compound VanQAmC10 was tested in mice through various modes of administration and reported as the LD50 (LD = lethal dose). The LD50 is the dosage that kills 50% of the test population of mice. […]
The doses for administration, were given modified OECD guidelines. LD50 was determined using Spearman-Karber method. […]
Groups of four 6 to 8 week-old Balb/c specific-pathogen-free female mice were used (weight ~22 g) for the experiment. […] The bacterial titer was expressed as Log CFU/g of thigh weight and plotted in GraphPad Prism software. […]

B. subtilis = test: BacLight assay (pore formation assay); assay type: cell-based; details: treatment at PEC
Description: To examine if the compounds form pores on the membrane, a mixture of the fluorescent dyes SYTO 9 and PI was used. While SYTO 9 penetrates both intact and permeabilized cells staining them green, PI is unable to cross the intact membrane and stains only permeabilized or dead cells red. Membrane-disrupting antibiotics such as nisin are known to form pores in the membrane is stained by both SYTO 9 and PI (Fig. 4D). […] Around 20% of the cells visualized post-treatment with both compounds were stained by PI and therefore permeabilized. […]
and the untreated control were carefully removed from the well, washed with 0.9 % saline, and placed on glass slides. The biofilms were then stained with 10 μL of SYTO9 (60μM) and imaged using a Zeiss 510 Meta confocal laser-scanning microscope. The orthogonal projections of the images were processed with LSM 5 Image examiner. […]
Overnight cultures of B. subtilis 168 were grown in 50 mL flasks in 5 mL BMM media. […] The MIC was determined as the lowest concentration at which no visible bacterial OD […]
Overnight cultures of B. subtilis 168 were grown in 50 mL flasks with 10 mL of media. […] The O.D. of the solutions are recorded every 30 minutes. […]
resuspended in prewarmed BMM media. […] The fluorescence in the GFP and Texas red channels was then observed under the microscope. […]

CCCCCCCCCCNC(=O)C[N+](C)(C)CCCNC(=O)C1NC(=O)C2NC(=O)C(NC(=O)C3NC(=O)C(CC(N)=O)NC(=O)C(NC(=O)C(CC(C)C)NC)C(O)c4ccc(c(Cl)c4)Oc4cc3cc(c4OC3OC(CO)C(O)C(O)C3OC3CC(C)(N)C(O)C(C)O3)Oc3ccc(cc3Cl)C2O)c2ccc(O)c(c2)-c2c(O)cc(O)cc21 (centres unmarked) [VanQAmC10 (8)]
bacterial load in thigh (MRSA ATCC33591): 3.3 log CFU g^−1 | lower bacterial load than observed against vancomycin (MRSA ATCC33591; 12 mg kg^−1 i.p. twice): 1.5 log CFU g^−1 | pore formation (co-staining SYTO 9 and PI) (B. subtilis): did not co-stain cells with both the dyes

CNC(CC(C)C)C(=O)NC1C(=O)NC(CC(N)=O)C(=O)NC2C(=O)NC3C(=O)NC(C(=O)NC(C(=O)NCCC[N+](C)(C)Cc4ccc(-c5ccccc5)cc4)c4cc(O)cc(O)c4-c4cc3ccc4O)C(O)c3ccc(c(Cl)c3)Oc3cc2cc(c3OC2OC(CO)C(O)C(O)C2OC2CC(C)(N)C(O)C(C)O2)Oc2ccc(cc2Cl)C1O (centres unmarked) [VanQbiph (4)]
pore formation (co-staining SYTO 9 and PI) (B. subtilis): did not co-stain cells with both the dyes

CN[C@H](CC(C)C)C(=O)N[C@H]1C(=O)N[C@@H](CC(N)=O)C(=O)N[C@H]2C(=O)N[C@H]3C(=O)N[C@H](C(=O)N[C@H](C(=O)O)c4cc(O)cc(O)c4-c4cc3ccc4O)[C@H](O)c3ccc(c(Cl)c3)Oc3cc2cc(c3O[C@@H]2O[C@H](CO)[C@@H](O)[C@H](O)[C@H]2O[C@H]2C[C@](C)(N)[C@H](O)[C@H](C)O2)Oc2ccc(cc2Cl)[C@H]1O [Vancomycin, reference compound]
bacterial load in thigh (MRSA ATCC33591): 4.8 log CFU g^−1
